The target in experiment [1] is T1, human CCR2 (Homo sapiens, UniProt P41597). In words: CCR2 binding assay ([125I]-MCP-1 displacement, SPA). Details: expressed in transfected cells; host or cells: HEK293 EBNA cells (membrane preparation). Particulars: human CCR2-HEK293 EBNA membranes. How it is done:
The binding of test compounds to the CCR2 receptor was evaluated using [^125I]-MCP-1.
Briefly, 25 μL assay buffer (25 mM HEPES, pH 7.4, 5 mM MgCl2, 1 mM CaCl2, 0.2% (w/v) protease free BSA, 100 μg/mL bacitracine and 0.1 M NaCl) was placed into total binding wells and 25 μL unlabelled ligand (0.4 μM MCP-1, for determination of non-specific binding) was placed into non-specific binding wells. [^125I]-MCP-1 (25 μL), human CCR2-HEK293 EBNA membrane preparation (25 μL) and SPA beads (25 μL) were added to all the wells. The wells were incubated for 4 h and counted for 1 min/well in a Perkin Elmer Topcount NXT.
The SPA beads (wheat germ agglutinin (WGA) PEI Type A PVT 0.25 mg/well) were prepared by reconstituting lyophilised bead to 100 mg/mL with de-ionised water and further diluting in assay buffer to give 10 mg/mL. The radioligand ([^125I]-MCP-1) was prepared by dilution in assay buffer to give 0.32 μCi/mL, ˜17600 dpm/25 μL (specific activity 2000 Ci/mMol). The final assay concentration was 0.04 nM. The human CCR2-HEK293 EBNA cells membranes were prepared as follows: cells were spun down at 1000×g for 3 min at room temperature, washed in PBS and spun down again. The cells were then homogenised with an Ultra Turrax at setting 6 in 5-10 mL ice cold buffer A (EDTA 10 mM, HEPES 10 mM, pH 7.4) for 10 sec. Following dilution with further ice cold buffer A and spinning at 20000×g for 20 min at 4° C., the mixture was re-homogenised in 5-10 mL ice cold buffer B (EDTA 0.1 mM, HEPES 10 mM, pH 7.4) and spun at 20000×g for 20 min at 4° C. The protein was assayed and re-suspended in buffer C (Buffer B+1 tablet/10 mL of Roche protease inhibitor cocktail) at 3 mg/mL. Before use, the membranes were thawed and diluted with assay buffer to give 80 μg/mL (2 μg/well).
Specific binding was determined as the difference between total binding in the absence of antagonist and binding in the presence of excess antagonist (non-specific binding). Data was expressed as a percentage of specific binding and analysed by a 4-parameter logistic equation using GraphPad Prism 4 software (GraphPad, San Diego, Calif., USA) to yield IC50 values. Ki values were calculated from the IC50 values using the correction for radioligand concentration.

Experiment [2] has as its target T1, human CCR2. Put plainly: CCR2 functional calcium assay (FLIPR calcium flux, hMCP-1 challenge). It is filed as cell-based. Details: expressed in transfected cells; host or cells: HEK293 EBNA cells. In short, it runs like this:
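FLIPR Fluo-4 calcium flux in HEK293 EBNA cells transfected with human CCR2, with non-transfected cells as control. Compounds (10-point 1:3 curves, typically 30 μM to 0.5 nM) were added in HBSS/20 mM HEPES/0.1% BSA, pH 7.4, followed by MCP-1 challenge. Peak minus basal signal was expressed as % of EC50 MCP-1 response.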
Background: Calcium assays in cells follow changes in intracellular calcium, usually with a dye or a luminescent sensor.

Experiment [3] concerns rat model of STZ induced diabetes. Put plainly: rat model of STZ induced diabetes (diabetic nephropathy), kidney histology. In kind it is in vivo. The settings on record: male Wistar rats, STZ 50 mg/kg i.p., 8 mg/kg/day oral, kidney day 43, p<0.01 vs STZ-vehicle. From the text: Diabetic nephropathy is a common manifestation of renal disease and is defined as the progressive development of renal insufficiency in the setting of hyperglycaemia. This sustained hyperglycaemia causes glomerular mesangial expansion through increased synthesis and decreased degradation of extracellular matrix protein, which progressively destroys the glomerular capillaries, eventually leading to proteinuria and renal failure. Animal models for diabetes can be employed for assessing the mechanisms of the disease, screening potential therapies for the treatment of this condition, and evaluation of therapeutic options. […] A single intraperitoneal injection of STZ in rats results in selective damage of the insulin producing beta cells in the pancreas causing insulin deficiency and subsequent hyperglycaemia after 48 hours. Over the time course of this procedure which can last from 3 weeks to many months, animals develop modest elevations in albuminuria and serum creatinine and some of the histological lesions associated with diabetic nephropathy. The aim of this study was to determine the efficacy of a test compound CCR2 antagonist (Example 33) in a rat model of STZ induced diabetes.
Male Wistar rats were given daily oral administration of the vehicle (30% w/v hydroxypropyl-beta-cyclodextrin (HPBC)) in saline to groups 1 and 3, or oral administration of Example 33 (8 mg/kg/day) to group 2, from 3 days prior to administration of streptozotocin. On day 0 streptozotocin was injected (50 mg/kg body wt, i.p. dissolved in 20 mM sodium citrate buffer) to rats in groups 1 and 2 (STZ groups). Group 3 rats (sham) were injected with an equivalent volume of 20 mM sodium citrate buffer. On day 43 all animals were culled, the left kidney was removed and cut in a sagittal section. These tissue samples were fixed by immersion in 10% (wt/vol) formaldehyde in phosphate-buffered saline (PBS) (0.01 mol/L, pH 7.4) at room temperature. […] The measured parameters were 1) monocyte and macrophage infiltration, 2) tubular damage and 3) glomerular damage. […]

Setting [4] is: HEK293 EBNA cells transfected with human CCR2, hMCP-1 challenge, read-out: Functional CCR2 fKi.

T1 sequence (P41597 whole entry): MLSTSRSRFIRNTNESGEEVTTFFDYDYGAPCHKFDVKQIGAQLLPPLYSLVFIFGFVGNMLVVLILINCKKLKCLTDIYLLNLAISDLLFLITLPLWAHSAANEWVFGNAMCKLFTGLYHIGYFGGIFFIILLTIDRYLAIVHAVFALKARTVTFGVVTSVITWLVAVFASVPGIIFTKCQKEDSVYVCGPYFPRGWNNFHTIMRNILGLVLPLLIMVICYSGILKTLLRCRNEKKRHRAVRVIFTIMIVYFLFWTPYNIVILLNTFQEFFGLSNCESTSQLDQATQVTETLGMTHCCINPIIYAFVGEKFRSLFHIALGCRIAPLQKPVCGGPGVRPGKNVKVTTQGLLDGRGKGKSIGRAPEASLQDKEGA

Consider `Cc1nc2ccnn2c(O)c1Cc1ccc(Cl)cc1` [Example 1, 6-[(4-Chlorophenyl)methyl]-5-methylpyrazolo[1,5-a]pyrimidin-7-ol], for which the results for the Ki at human CCR2 [1] and on human CCR2 [2] (setting [4]) were 100 to 1000 nM and 10 to 100 nM, respectively.
Regarding `CCCc1nc2ccnn2c(O)c1Cc1ccc(C(F)(F)F)c(F)c1` [Example 16, 6-{[3-Fluoro-4-(trifluoromethyl)phenyl]-methyl}-5-propylpyrazolo[1,5-a]-pyrimidin-7-ol], the figures for the Ki at human CCR2 [1] and on human CCR2 [2] (setting [4]) were 100 to 1000 nM and less than 10 nM, respectively.
For the compound `Oc1c(Cc2cccc(Cl)c2)c(C2CC2)nc2ccnn12` [Example 21, 6-[(3-Chlorophenyl)methyl]-5-cyclo-propylpyrazolo[1,5-a]pyrimidin-7-ol], the results for the Ki at human CCR2 [1] and on human CCR2 [2] (setting [4]) were 10 to 100 nM and less than 10 nM, respectively.
Turning to `Oc1c(Cc2cccc(C(F)(F)F)c2)c(C2CC2)nc2ccnn12` [Example 22, 5-Cycloproyl-6-{[3-(trifluoromethyl)-phenyl]methyl}pyrazolo[1,5-a]pyrimidin-7-ol], the Ki on human CCR2 [1] is 10 to 100 nM; on human CCR2 [2] (setting [4]), less than 10 nM.
Take `Oc1c(Cc2cc(F)cc(C(F)(F)F)c2)c(C2CC2)nc2ccnn12` [Example 33, 5-Cyclopropyl-6-{[3-fluoro-5-(trifluoro-methyl)phenyl]methyl}pyrazolo[1,5-a]-pyrimidin-7-ol]: the Ki on human CCR2 [1] was in the range of 10 to 100 nM. Further, the Ki on human CCR2 [2] (setting [4]) is less than 10 nM. Moreover, in experiment [3], the “glomerular damage (semiquantitative score)” value is “statistically significant effect reducing”; the “monocyte and macrophage infiltration (semiquantitative score)” value is “statistically significant effect reducing”; the “tubular damage (semiquantitative score)” value was “statistically significant effect reducing”.
On to `CC(C)c1nc2ccnn2c(O)c1Cc1ccc(F)c(Cl)c1` [Example 37, 6-[(3-Chloro-4-fluorophenyl)methyl]-5-(propan-2-yl)pyrazolo[1,5-a]pyrimidin-7-ol], for which the Ki on human CCR2 [1] and on human CCR2 [2] (setting [4]) was less than 10 nM in each case.
Consider `CC(C)c1nc2ccnn2c(O)c1Cc1ccc(F)c(C(F)(F)F)c1` [Example 40, 6-{[4-Fluoro-3-(trifluoromethyl)phenyl]-methyl}-5-(propan-2-yl)pyrazolo[1,5-a]-pyrimidin-7-ol], for which the Ki on human CCR2 [1] is 100 to 1000 nM; on human CCR2 [2] (setting [4]) it was less than 10 nM.
In the same order, the values of `CCc1nc2ccnn2c(O)c1Oc1ccc(Cl)c(Cl)c1` [Example 64, 6-(3,4-Dichlorophenoxy)-5-ethyl-pyrazolo[1,5-a]pyrimidin-7-ol] are 10 to 100 nM and less than 10 nM.
As to `Oc1c(Oc2ccc(Br)cc2)c(C2CC2)nc2ccnn12` [Example 65, 6-(4-Bromophenoxy)-5-cyclopropyl-pyrazolo[1,5-a]pyrimidin-7-ol], the Ki was 100 to 1000 nM at human CCR2 [1] and less than 10 nM on human CCR2 [2] (setting [4]).
Consider `CCOC(=O)c1nc2ccnn2c(O)c1Cc1cccc(Cl)c1` [Example 70, Ethyl 6-[(3-chlorophenyl)methyl]-7-hydroxypyrazolo[1,5-a]pyrimidine-5-carboxylate], for which the Ki on human CCR2 [1] is 100 to 1000 nM; at human CCR2 [2] (setting [4]), less than 10 nM.
Turning to `CCOC(=O)c1nc2ccnn2c(O)c1Cc1ccc(Cl)c(Cl)c1` [Example 72, Ethyl 6-[(3,4-dichlorophenyl)methyl]-7-hydroxypyrazolo[1,5-a]pyrimidine-5-carboxylate], the Ki on human CCR2 [1] was 10 to 100 nM; on human CCR2 [2] (setting [4]), less than 10 nM.
As to `Cc1nc2c(C(=O)N(C)CCC#N)cnn2c(O)c1Cc1ccc(Cl)cc1` [Example 109, 6-[(4-Chlorophenyl)methyl]-N-(2-cyanoethyl)-7-hydroxy-N,5-dimethylpyrazolo[1,5-a] pyrimidine-3-carboxamide], on human CCR2 [2] (setting [4]), the Ki lay within 100 to 1000 nM.
For `Cc1ccc(Cc2c(C)nc3c(C(=O)NCCc4ccccn4)cnn3c2O)cc1` [Example 111, 7-Hydroxy-5-methyl-6-[(4-methylphenyl)-methyl]-N-[2-(pyridin-2-yl)ethyl]pyrazolo-[1,5-a]pyrimidine-3-carboxamide], the Ki at human CCR2 [2] (setting [4]) was in the range of 100 to 1000 nM.
As to `COCCCNC(=O)c1cnn2c(O)c(Cc3ccccc3)c(C)nc12` [Example 112, 6-Benzyl-7-hydroxy-N-(3-methoxypropyl)-5-methylpyrazolo[1,5-a] pyrimidine-3-carboxamide], at human CCR2 [2] (setting [4]), the Ki lay in the range of 100 to 1000 nM.
`COCCNC(=O)c1cnn2c(O)c(Cc3ccc(C(F)(F)F)cc3)c(C)nc12` [Example 113, 7-Hydroxy-N-(2-methoxyethyl)-5-methyl-6-{[4-(trifluoromethyl)phenyl]methyl}pyrazolo [1,5-a]pyrimidine-3-carboxamide]: the Ki at human CCR2 [2] (setting [4]) was 100 to 1000 nM.
As to `Cc1nc2c(C(=O)N3CCOCC3)cnn2c(O)c1Cc1ccc(C(F)(F)F)cc1` [Example 114], the Ki on human CCR2 [2] (setting [4]) was 100 to 1000 nM.
Regarding `COCCNC(=O)c1cnn2c(O)c(Cc3ccc(Cl)c(Cl)c3)c(C)nc12` [Example 115, 6-[(3,4-Dichlorophenyl)methyl]-7-hydroxy-N-(2-methoxyethyl)-5-methylpyrazolo-[1,5-a] pyrimidine-3-carboxamide], the Ki at human CCR2 [2] (setting [4]) fell in the range of 10 to 100 nM.
For `COCCNC(=O)c1cnn2c(O)c(Cc3cccc(Cl)c3)c(C)nc12` [Example 116, 6-[(3-Chlorophenyl)methyl]-7-hydroxy-N-(2-methoxyethyl)-5-methylpyrazolo[1,5-a]-pyrimidine-3-carboxamide], at human CCR2 [2] (setting [4]), the Ki fell in the range of 100 to 1000 nM.
`CCc1nc2c(C(=O)NCCOC)cnn2c(O)c1Cc1ccc(Cl)cc1` [Example 117, 6-[(4-Chlorophenyl)methyl]-5-ethyl-7-hydroxy-N-(2-methoxyethyl)pyrazolo-[1,5-a]pyrimidine-3-carboxamide]: the Ki on human CCR2 [2] (setting [4]) was 10 to 100 nM.
As for `COCCNC(=O)c1cnn2c(O)c(Cc3ccc(Cl)cc3)c(COC)nc12` [Example 118, 6-[(4-Chlorophenyl)methyl]-7-hydroxy-N-(2-methoxy-ethyl)5-(methoxymethyl)-pyrazolo[1,5-a]pyrimidine-3-carboxamide], at human CCR2 [2] (setting [4]), the Ki is 100 to 1000 nM.
As for `O=C1Nc2ccccc2C2(CCN(CCc3ccc(C(F)(F)F)cc3)CC2)O1` [RS102895, reference compound], at human CCR2 [2] (at 2 μM), the “inhibition of CCR2 calcium response” value is “full inhibition”. Also, the Ki at human CCR2 [2] (reference antagonist, read-out: fKi) was determined as 84 nM.
One may read the EC50 as the concentration at which the effect is half-maximal. As for “MCP-1: human recombinant MCP-1, positive control (agonist) of the CCR2 functional assay”, in the experiment with human CCR2 [2] (agonist positive control), the EC50 was in the range of 3 to 5 nM and the “concentration giving maximal response” value worked out at 30 nM.

Source of the values: patent publication US20130252951A1, “7-HYDROXY-PYRAZOLO[1,5-A] PYRIMIDINE COMPOUNDS AND THEIR USE AS CCR2 RECEPTOR ANTAGONISTS” (Proximagen Limited, priority 2010, published 2013).
